# Test results: ChEMBL document CHEMBL1157539, “Thousands of chemical starting points for antimalarial lead identification” (Nature, 2010)
# System: Plasmodium falciparum
# Test: GSK_TCMDC: Inhibition of Plasmodium falciparum 3D7 in whole erythrocytes, using parasite LDH activity as an index of growth.
# Assay type: functional, organism-based
# Conditions: Plasmodium falciparum, 3D7
row,SMILES,XC50 [nM]
1,O=C(Nc1cccc(-c2csc(-c3nc4ccccc4[nH]3)c2)c1)c1ccncc1,256
2,O=[N+]([O-])c1ccc(-c2nc3cc(C4=NC5CCCCC5N4)ccc3[nH]2)cc1 (centres undefined),691
3,O=C(c1cccc(-c2ccc(-c3nc4cc(F)ccc4[nH]3)s2)c1)N1CCCCC1CN1CCC(O)C1 (centres undefined),715
4,COc1ccc(CN(C)C(=O)CCNS(=O)(=O)c2ccc3c(c2)OCCCO3)cc1F,656
5,O=C(Nc1ccc(C(=O)Oc2ccc(-c3ccccc3)cc2)cc1)N[C@@H](Cc1ccc(O)cc1)C(=O)NC1CCN(Cc2ccc(O)cc2)C1 (some centres undefined),803
6,CCN(CCCN1CCCCC1)c1cc(C)nc(Nc2cc(F)cc(F)c2)n1,570
7,OC(CNc1ccnc(Nc2cccc(CCN3CCOCC3)c2)n1)c1ccccc1 (centres undefined),594
8,Cc1cc(=NN=Cc2ccccc2Cl)c2cccc(C)c2[nH]1,705
9,O=C(N[C@H]1CCCC[C@H]1C(=O)O)c1ccccc1,781
10,COC(=O)c1cccc(CNCc2ccc(-c3ccc(-c4nc5cc(F)ccc5[nH]4)cc3)cc2)c1,237
11,O=C(/C=C/c1ccc(Cl)c(Cl)c1)NCCCCCN1CC[C@H](NC(=O)/C=C/c2ccccc2)C1,1000
12,c1ccc(Oc2ccc(Nc3ccnc4cc(-c5csc(CN6CCCCC6)n5)ccc34)cc2)nc1,579
13,Cc1cccc2c(CON3C(N)=NC(N)=NC3(C)C)cccc12,3.2
14,Oc1ccc(CC2CCCN(c3nc(NCCCOc4ccccc4-c4ccccc4)nc(N4CCNCC4)n3)C2)cc1 (centres undefined),916
15,COc1ccc(NC(=O)/C=C/c2ccccc2Cl)cc1OCCN1CCC(NCc2ccccc2)CC1,352
16,O=C(NC1CCC(CN2CCC(c3c[nH]c4ccccc34)CC2)CC1)c1cc(-c2ccccc2Cl)oc1C(F)(F)F (centres undefined),771
17,CC(C)NCc1cccc(-c2cccc(NC(=O)c3cccc(C#N)c3)c2)c1,823
18,O=C(Nc1ccc2c(c1)CCC2)c1ccc(CN2CCCN(Cc3cccc(O)c3)CC2)cc1,894
19,COc1ccc2nc(C)cc(NC3Cc4ccccc4C3)c2c1,839
20,COc1ccc(CCn2c(=N)c(C(=O)NCc3ccc(C)cc3)cc3c(=O)n4ccccc4nc32)cc1,1130
21,CS(=O)(=O)CCNCc1ccc(-c2ccc3c(Nc4ccc(Oc5ccccn5)cc4)ccnc3c2)o1,715
22,COc1cccc(C(=O)C2CC2CN(C)CCC(O)c2ccc(Cl)c(Cl)c2)c1 (centres undefined),756
23,COc1ccc(-c2cccc(NC(=O)c3ccccc3)c2)cc1CN1CCCN(C)CC1,733
24,CN(C)Cc1ccc(-c2cc3c(-c4ccc(CN(C)C)cc4)ccnc3[nH]2)cc1,887
25,COc1ccc(Nc2c3ccc(Cl)cc3nc3ccc(OC)cc23)cc1,441

row,SMILES,XC50 [nM]
1,Cc1ccc(CC(C)NCC(O)c2cccc(C(F)(F)F)c2)cc1F (centres undefined),916
2,O=C(NC1CCN(CC2(c3ccccc3F)CCCC2)CC1)c1cc[nH]n1,997
3,Cc1cc2c(/C=C/C(=O)NC3CCC(CCN4CCc5ccc(C#N)cc5CC4)CC3)cccc2[nH]1 (centres undefined),840
4,C#CCOc1ccccc1CN1CCC(N2CCc3cc(NC(=O)c4cc(C)on4)ccc32)C1 (centres undefined),675
5,CC1(C)CC(=O)c2c(O)cc(OCc3ccncc3)cc2O1,1040
6,CC[C@H]1CN2CC[C@@H]1C[C@H]2[C@H](O)c1ccnc2ccc(Cl)cc12,119
7,COc1cccc(CCN(Cc2ccccc2-c2ccc(CNC3CC(C)(C)NC(C)(C)C3)cc2)C(=O)NC2CCCCC2)c1,932
8,COc1cccc(-c2ccc(C(=O)NC3CCN(Cc4ccc(C(C)(C)C)cc4)CC3)s2)c1,1600
9,COCC(=O)N(Cc1ccccc1-c1cccc(CNCCc2ccccc2)c1)C1CCN(Cc2ccccc2)CC1,1100
10,CNC(=O)c1cc(S(=O)(=O)Nc2ccc(OC)cc2)cs1,1130
11,CCCc1cc(N2CCC(N3CCCC3)CC2)nc(Nc2ccc(OC)cc2)n1,807
12,CCNc1cc(C(=O)N[C@@H](Cc2ccccc2)[C@H](O)CNC(C)(C)CCCC(C)C)cc(N2CCCC2=O)c1,827
13,COc1ccc(S(=O)(=O)N2CCC(NS(=O)(=O)c3ccc(F)cc3)CC2)cc1,1330
14,CC1CCCC(Nc2noc(-c3sccc3Br)n2)C1 (centres undefined),689
15,COc1ccc(C2CCN(CCCCNC(=O)c3ccc(NC(=O)c4ccc(Cl)cc4)cc3)CC2)c(OC)c1,570
16,CN1CCN(c2ccc3[nH]c(-c4ccc5[nH]c(-c6ccc([N+](=O)[O-])c(N)c6)nc5c4)nc3c2)CC1,105
17,CCCN(Cc1ccc(OCC)cc1)Cc1cc(=O)c2cc(Cl)ccc2[nH]1,1260
18,CCC(CC)(Cc1ccccc1)NC(=O)[C@H](CC1CCCCC1)Nc1ccc(C#N)c2ccccc12,634
19,Clc1cccc(CNC2CCN(CC3CCCCC3)CC2)c1,912
20,COc1ccc(-c2cccc(NC(=O)c3cccc(C#N)c3)c2)cc1CN1CCN(C)CC1,926
21,Cc1ccc2cc(C3NC(=O)c4ccccc4N3)c(Cl)nc2c1 (centres undefined),945
22,NC(=O)c1ccccc1Nc1nc(Nc2ccc(N3CCOCC3)cc2)ncc1[N+](=O)[O-],881
23,CN1CCN(c2cccc(NC(=O)c3ccc(-c4ccc(C#N)cc4)cc3)c2)CC1,1260
24,O=C(C=Cc1cn(-c2ccccc2)nc1-c1cccs1)N1CCN(c2ccncc2)CC1,721
25,CCOc1c(CNCCCCCCNCc2ccc3ccccc3c2OCC)ccc2ccccc12,759

row,SMILES,XC50 [nM]
1,Cn1cccc1C(=O)C(=O)Nc1ccc(-c2ccc(-c3nc4cc(F)ccc4[nH]3)cc2)cc1,838
2,CC1(CCCCN2CCC(c3c[nH]c4cnccc34)CC2)C(=O)Nc2cccc(Cl)c21 (centres undefined),868
3,COc1ccc(-c2cccc(CNCc3ccc(F)cc3)c2)cc1S(=O)(=O)NCCN1CCCC1,1850
4,O=C(Nc1cccc(CN2CCCN(Cc3ccc(O)cc3)CC2)c1)c1cccc(C(F)(F)F)c1,314
5,CCOc1ccc(C(=O)Nc2ccc(-c3nc4ccccc4[nH]3)cc2)cc1[N+](=O)[O-],591
6,Cc1cc(=O)[nH]c(-n2nc(C)cc2NC(=O)CC(c2ccccc2)c2ccccc2)n1,1100
7,O=c1cc(NCCCNC2CCOc3c(I)cc(Cl)cc32)[nH]c2ccccc12 (centres undefined),832
8,CCOc1ccc2[nH]c(C)cc(=NN=Cc3ccncc3)c2c1,991
9,Clc1ccc(Nc2nc(Nc3ccc(Cl)c(Cl)c3)nc(Sc3nc4ccccc4[nH]3)n2)cc1Cl,490
10,O=C(C=CC(=O)N1CCCCC1)NCc1ccccc1,732
11,COc1ccc(Br)cc1/C=C/C(=O)Nc1cccc(C2CCCN(C)C2)c1 (centres undefined),892
12,Cc1cccc2nc(-c3cccc(-c4ccc(NC(=O)C(=O)c5cccn5C)cc4)c3)[nH]c12,375
13,Oc1ccc2[nH]c(-c3cccc(F)c3)nc2c1CNCc1ccccc1,916
14,CNC(=O)c1cc(Nc2nnc(-c3ccc(C)c(S(=O)(=O)NC4CCCCC4)c3)c3ccccc23)ccc1OC,904
15,Cc1noc(=O)c2ccc(NC(=O)C(O)(CSc3ccccc3)CC(C)C)cc12 (centres undefined),722
16,O=C(/C=C/c1ccc(Cl)c(Cl)c1)NCCCCCN1CCC(NC(=O)NC2CCCCCC2)CC1,464
17,COc1ccc(-c2nc(NC(=O)CS(=O)(=O)c3ccccc3)sc2C)cc1,596
18,CCCCc1ccc(C(=O)NC2CCN(C[C@H](O)c3ccnc4ccc(OC)cc34)CC2)cc1,728
19,O=C(Nc1ccsc1)Nc1cccc(-c2cccc(-c3nc4cc(C(F)(F)F)ccc4[nH]3)c2)c1,150
20,COc1ccc2cc(C(c3nnnn3CC3CCCO3)N3CCc4ccccc43)c(=O)[nH]c2c1 (centres undefined),795
21,Cc1c(NC(=O)COc2ccc(Cl)cc2C(=O)c2cc(F)cc(C(F)(F)F)c2)ccc2ncsc12,1020
22,CCCCCCN(CCCCCC)CC(O)c1c(OC)ccc2ccccc12 (centres undefined),567
23,O=C(NCc1cccs1)[C@H](Cc1ccccc1)Nc1ccnc(NCCc2ccc(F)cc2)n1,1450
24,COc1ccc(C(=O)CCC(=O)N(Cc2ccc(-c3ccc(CNCCc4ccc(S(C)(=O)=O)cc4)cn3)cc2)C(C)CN(C)C)cc1F (centres undefined),650
25,c1ccc(-c2nc3ccccc3[nH]2)c(Nc2ccnc3cc(-c4nccs4)ccc23)c1,740

row,SMILES,XC50 [nM]
1,CCCCN(Cc1cccc(C(F)(F)F)c1Cl)c1ccc(C(O)(C(F)(F)F)C(F)(F)F)cc1,960
2,Cc1cc(N2CCCC2)nc(Nc2ccc(NC(=O)CC(C)C)cc2)n1,841
3,COC(=O)c1ccc(CC(C)NCC(O)c2ccccc2Cl)cc1 (centres undefined),1010
4,Cc1nc(NCCCn2ccnc2)cc(-c2cncc(-c3ccc(OC(F)(F)F)cc3)c2)n1,616
5,Nc1nc(N)c2c(Cl)c(N3CCOCC3)ccc2n1,76.9
6,CCN(CC)CCCC(C)Nc1c(-c2ccc(C)cc2)cnc2ccccc12 (centres undefined),200
7,Cc1ccc(C(=O)Cn2nc(-c3ccc(C)c(S(=O)(=O)N4CCCC4)c3)ccc2=O)cc1,513
8,O=C(Nc1cccc(CN2CCCN(Cc3ccccc3)CC2)c1)c1cc2ccccc2s1,1200
9,Cc1cc(O)c(-c2ccc(Sc3ccc(Cl)cc3)cc2)c(C)n1,969
10,Clc1ccc2c(NCCNc3ccnc4cc(Cl)ccc34)ccnc2c1,396
11,COc1ccc(CN2CCC(C(=O)Nc3cccc(-c4cccc(Cl)c4)c3)CC2)cc1O,975
12,O=C(/C=C/c1ccc(Cl)c(Cl)c1)NCCCCCN1CCCN(C(=S)Nc2cccc(Cl)c2)CC1,1050
13,O=C(Nc1cccc(CN2CCCN(Cc3ccccc3)CC2)c1)c1ccc(Cl)c(Cl)c1,896
14,Cc1cccc(CNc2nc(C)cc(NCCC(=O)Nc3ccccc3)n2)c1,1050
15,CCOc1cc(C(=O)Nc2cccnc2)ccc1-c1nc2cc(Cl)c(Cl)cc2[nH]1,1010
16,Oc1ccc(Cl)cc1-c1cc(C(F)(F)F)nc(-c2ccccc2)n1,753
17,CN1CCC(C(=O)Nc2ccc(-c3cccc(-c4nc5cc(F)ccc5[nH]4)c3)cc2)CC1,792
18,CC(C)CNCc1ccc(-c2ccc(CNC3CCN(Cc4ccccc4)CC3)cc2)cc1,558
19,COc1ccc(CNC(=N)Nc2nc(-c3ccc(OCCCn4ccnc4)cc3)cs2)cc1,393
20,CC(CN(C)C)C(=O)Nc1cccc(-c2ccc(-c3nc4cc(F)ccc4[nH]3)cc2)c1 (centres undefined),653
21,COc1ccccc1C1CCN(C2CCC(NC(=O)/C=C/c3ccc(OC(F)(F)F)cc3)CC2)CC1 (centres undefined),1350
22,CC(NC(=O)c1ccc(O)c(-c2ccc(Cl)c(Cl)c2)c1)C(=O)NC1CCCCC1 (centres undefined),844
23,CC(C)Cc1cn(-c2nc(C(=N)N)cs2)c2cc(Cl)ccc12,154
24,Cc1cccc(C)c1CNc1cccc(-c2nc(C)c(C)[nH]2)c1,883
